We go through two molecules from article PMC11749787, “Natural flavonoid glycosides Chrysosplenosides I & A rejuvenate intestinal stem cell aging via activation of PPARγ signaling” (Life Medicine, 2024).

Broadly, the Kd is the constant that tells how readily two partners part at equilibrium. A lower Kd goes with a tighter complex.

For the experiment, the target named is T1, PPARγ (peroxisome proliferator-activated receptor-gamma) (Homo sapiens, UniProt P37231).
T1 construct: gene PPARG; human PPARγ protein with a His tag (HY-P7999, MCE)
T1 sequence (P37231 1-505): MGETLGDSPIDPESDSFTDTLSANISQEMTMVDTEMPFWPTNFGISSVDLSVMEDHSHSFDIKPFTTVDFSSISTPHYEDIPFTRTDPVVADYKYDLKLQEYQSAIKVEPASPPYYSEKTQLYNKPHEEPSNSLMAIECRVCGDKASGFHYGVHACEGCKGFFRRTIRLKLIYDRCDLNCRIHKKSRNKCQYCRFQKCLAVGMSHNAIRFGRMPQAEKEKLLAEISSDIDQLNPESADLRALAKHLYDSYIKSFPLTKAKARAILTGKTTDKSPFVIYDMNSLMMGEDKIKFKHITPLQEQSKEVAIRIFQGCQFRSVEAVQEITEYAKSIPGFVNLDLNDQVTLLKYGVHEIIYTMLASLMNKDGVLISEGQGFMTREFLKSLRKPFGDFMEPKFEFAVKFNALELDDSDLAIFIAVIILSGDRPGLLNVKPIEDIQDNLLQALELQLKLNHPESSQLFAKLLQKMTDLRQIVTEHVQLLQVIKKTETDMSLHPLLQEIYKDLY
The experiment in a line: bio-layer interferometry (Octet K2, NTA biosensor, immobilized His-tagged PPARγ). It is filed as binding. On the technique in general: BLI is a label-free optical method that tracks binding on a fibre tip over time.

As for `COc1cc(O[C@@H]2O[C@H](CO)[C@@H](O)[C@H](O)[C@H]2O)c(-c2oc3cc(OC)c(OC)c(O)c3c(=O)c2OC)cc1O` [CA1, Chrysosplenoside I], binding was characterised by a dissociation constant (Kd) of 75.3 µM.
Chrysosplenoside A [CA2] had a dissociation constant (Kd) of 32.4 µM.
